In assay [1] the target is T1, ASGPR receptor on the cell surface (HepG2 cells) (Homo sapiens, UniProt P07306).
T1 construct: host or cells: HepG2
T1 sequence (P07306 1-291): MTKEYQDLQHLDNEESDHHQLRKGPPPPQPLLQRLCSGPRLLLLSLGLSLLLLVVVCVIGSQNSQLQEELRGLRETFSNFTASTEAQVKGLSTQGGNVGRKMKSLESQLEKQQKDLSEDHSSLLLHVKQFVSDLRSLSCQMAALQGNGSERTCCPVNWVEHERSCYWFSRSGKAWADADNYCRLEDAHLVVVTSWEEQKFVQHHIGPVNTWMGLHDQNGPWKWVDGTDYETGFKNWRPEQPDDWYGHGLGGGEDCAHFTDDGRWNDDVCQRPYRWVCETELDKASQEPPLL
T1 sequence (P07307 1-311 partner): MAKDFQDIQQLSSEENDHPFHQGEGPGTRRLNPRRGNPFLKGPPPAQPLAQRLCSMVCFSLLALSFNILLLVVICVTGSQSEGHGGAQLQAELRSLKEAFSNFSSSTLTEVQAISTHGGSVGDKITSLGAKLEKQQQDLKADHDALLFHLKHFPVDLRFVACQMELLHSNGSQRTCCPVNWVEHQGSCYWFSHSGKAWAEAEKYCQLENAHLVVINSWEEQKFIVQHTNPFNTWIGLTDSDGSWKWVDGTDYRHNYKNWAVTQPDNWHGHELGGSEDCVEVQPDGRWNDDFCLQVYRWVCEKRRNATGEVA
Put plainly: Ternary complex formation assay (flow cytometry, HepG2). It is filed as cell-based. The source says:
The ternary complex formation assay is designed to identify the concentration of Degrader required to form a complex between the degrader, a constant concentration of fluorescently-labeled antibody and the ASGPR receptor on the cell surface. The peak mean fluorescence intensity (MFI) occurs at the optimal degrader concentration for ternary complex formation. Sub-optimal concentrations of degrader (too much or too little) results in fewer complexes formed and a reduced […].
Human IgG (Sigma-Aldrich, 14506) was covalently labeled with Alexa Fluor 488 using the Alexa Fluor™ 488 Protein Labeling Kit (Thermo Fisher, A10235) following the manufacturer's instructions. HepG2 cells (ATCC, HIB-8065) were cultured to about 70% confluence and harvested by trypsinization. Single cell suspensions of HepG2 cells were plated in 96 well plates at 1×10^5 cells/well in cell culture media (DMEM supplemented with […]) and placed at 4° C. For studies using human IgG, cells were incubated with 100 nM AF488-labeled anti-human IgG and serial dilutions of IgG-based degrader for 1 hour at 4° C. For studies using DNP, cells were incubated with 100 nM AF488-labeled polyclonal rabbit anti-dinitrophenyl (DNP) antibodies (ThermoFisher) and serial dilutions of DNP-based degrader for 1 hour at 4° C. After washing once with ice-cold PBS containing 0.1% BSA and 0.1% sodium azide, cells were resuspended in 150 uL PBS+0.1% BSA and cell-associated AF488 fluorescence was measured by flow cytometry using the iQue® Screener PLUS Flow Cytometer (IntelliCyt).
In general terms: A flow cytometer gives signals particle by particle.

Another assay concerns HepG2 cells. The assay is described as follows: Cellular uptake assay of AF488-labeled antibody (HepG2). It is filed as cell-based. As for the experimental part: The cellular uptake assay is designed to measure compound-mediated cellular uptake of fluorescently labeled antibody following ternary complex formation with the ASGPR receptor and endocytosis of the entire complex into cells.
Human IgG (Sigma-Aldrich, 14506) was covalently labeled with Alexa Fluor 488 using the Alexa Fluor™ 488 Protein Labeling Kit (Thermo Fisher, A10235) following the manufacturer's instructions. HepG2 cells were plated in DMEM supplemented with 10% FBS at 5,000 cells per well in a 96-well microtiter plate and incubated for approximately 18 hours at 37° C./5% CO2. For studies using human IgG, 100 nM AF488-labeled human IgG antibodies and serial dilutions of IgG-based degrader (0.1% DMSO final concentration) were added to the cells and the mixture was incubated at 37° C. for 6 hours. For studies using DNP, 100 nM AF488-labeled DNP antibodies and serial dilutions of DNP-based degrader (0.1% DMSO final concentration) were added to the cells and the mixture was incubated at 37° C. for 6 hours. HepG2 cells were fixed in 100% methanol at −20° C. for 20 min, washed 3× with PBS, then stained with DAPI (Thermo, Cat #H3570). HepG2 cells were imaged for DAPI and Alexa Fluor 488 using the Operetta CLS, high-content analysis system (PerkinElmer). Data is presented as the ratio of the number of cells positive for hIgG or DNP (AF-488 fluorescence) over the total cell number (measured by DAPI).

[2] abbreviates: HepG2 cells, 100 nM AF488-labeled antibody, 37° C. for 6 hours, class symbols, read-out: Uptake Assay EC50.
[3] abbreviates: HepG2 cells, read-out: Uptake EC50.

Read-outs that look alike come from different tables or passages of the source.

With `CC(C)C[C@@H]1NC(=O)[C@H](Cc2c[nH]cn2)NC(=O)[C@H](Cc2c[nH]c3ccccc23)NC(=O)[C@H](C)NC(=O)[C@@H]2CSSC[C@H](NC(=O)[C@H](Cc3c[nH]c4ccccc34)NC(=O)[C@H](C(C)C)NC(=O)[C@H](CC(C)C)NC(=O)[C@H](CCC(=O)O)NC(=O)CNC1=O)C(=O)N[C@@H]([C@@H](C)O)C(=O)N1CCC[C@@H]1C(=O)N1C[C@@H](NC(=O)CCOCCOCCOCCNC(=O)CCCc3cn(CCCCCC(=O)NC(COCCC(=O)NCCOCCOCCOCCOC[C@H]4OC[C@H](Nc5nccc(C(F)(F)F)n5)[C@@H](O)[C@H]4O)COCCC(=O)NCCOCCOCCOCCOC[C@H]4OC[C@H](Nc5nccc(C(F)(F)F)n5)[C@@H](O)[C@H]4O)nn3)C[C@H]1C(=O)N[C@@H](CC(=O)O)C(=O)N2` [Compound 11], the EC50 (in assay [1]; in the assay with HepG2 cells (setting [2])) was under 100 nM throughout.
Consider `CC(C)C[C@@H]1NC(=O)[C@H](Cc2c[nH]cn2)NC(=O)[C@H](Cc2c[nH]c3ccccc23)NC(=O)[C@H](C)NC(=O)[C@@H]2CSSC[C@H](NC(=O)[C@H](Cc3c[nH]c4ccccc34)NC(=O)[C@H](C(C)C)NC(=O)[C@H](CC(C)C)NC(=O)[C@H](CCC(=O)O)NC(=O)CNC1=O)C(=O)N[C@@H]([C@@H](C)O)C(=O)N1CCC[C@@H]1C(=O)N1C[C@@H](NC(=O)CNC(COCCC(=O)NCCOCCOCCOCCOC[C@@]34CO[C@@H](O3)[C@H](Nc3cncc(C(F)(F)F)n3)[C@@H](O)[C@H]4O)COCCC(=O)NCCOCCOCCOCCOC[C@@]34CO[C@@H](O3)[C@H](Nc3cncc(C(F)(F)F)n3)[C@@H](O)[C@H]4O)C[C@H]1C(=O)N[C@@H](CC(=O)O)C(=O)N2` [Compound 73], for which the 50% effective concentration (EC50) was under 100 nM in assay [1] and 500 to 1000 nM with HepG2 cells (setting [3]).
Regarding `O=[N+]([O-])c1ccc(NCCOCCOCCOCCOCCOCCOCCOC[C@@]23CO[C@@H](O2)[C@H](Nc2nc(Cl)ns2)[C@@H](O)[C@H]3O)c([N+](=O)[O-])c1` [Compound 26, (1S,2R,3R,4R,5S)-4-((3-chloro-1,2,4-thiadiazol-5-yl)amino)-1-(22-((2,4-dinitrophenyl)amino)-2,5,8,11,14,17,20-heptaoxadocosyl)-6,8-dioxabicyclo[3.2.1]octane-2,3-diol], the 50% effective concentration (EC50) was under 100 nM in assay [1] (Ternary Complex EC50 (nM), HepG2 cells, 100 nM AF488-labeled antibody, 1 hour at 4° C., class symbols) and under 100 nM in the assay on HepG2 cells (Homo sapiens, HepG2, 6 h, read-out: Uptake Assay EC50 (nM)).
Turning to `CC(C)C[C@@H]1NC(=O)[C@H](Cc2cnc[nH]2)NC(=O)[C@H](Cc2c[nH]c3ccccc23)NC(=O)[C@H](C)NC(=O)[C@@H](NC(=O)[C@@H](N)CC(=O)O)CSSC[C@@H](C(=O)N[C@H](C(N)=O)[C@@H](C)O)NC(=O)[C@H](Cc2c[nH]c3ccccc23)NC(=O)[C@H](C(C)C)NC(=O)[C@H](CC(C)C)NC(=O)[C@H](CCC(=O)NCCOCCOCCOCCOCCNC(=O)CCCc2cn(CCCCCC(=O)NC(COCCC(=O)NCCOCCOCCOCCOC[C@H]3OC[C@H](Nc4nccc(C(F)(F)F)n4)[C@@H](O)[C@H]3O)COCCC(=O)NCCOCCOCCOCCOC[C@H]3OC[C@H](Nc4nccc(C(F)(F)F)n4)[C@@H](O)[C@H]3O)nn2)NC(=O)CNC1=O` [Compound 2], the EC50 in assay [1] was under 100 nM; with HepG2 cells (setting [2]) it was 100 to 500 nM.
For `CC(C)C[C@@H]1NC(=O)[C@H](Cc2c[nH]cn2)NC(=O)[C@H](Cc2c[nH]c3ccccc23)NC(=O)[C@H](C)NC(=O)[C@@H]2CSSC[C@H](NC(=O)[C@H](Cc3c[nH]c4ccccc34)NC(=O)[C@H](C(C)C)NC(=O)[C@H](CC(C)C)NC(=O)[C@H](CCC(=O)O)NC(=O)CNC1=O)C(=O)N[C@@H]([C@@H](C)O)C(=O)N1CCC[C@@H]1C(=O)N1C[C@@H](NC(=O)COCC(=O)NC(COCCC(=O)NCCOCCOCCOCCOC[C@H]3OC[C@H](Nc4nccc(C(F)(F)F)n4)[C@@H](O)[C@H]3O)COCCC(=O)NCCOCCOCCOCCOC[C@H]3OC[C@H](Nc4nccc(C(F)(F)F)n4)[C@@H](O)[C@H]3O)C[C@H]1C(=O)N[C@@H](CC(=O)O)C(=O)N2` [Compound 46], the concentration giving a half-maximal response (EC50) (in assay [1]; with HepG2 cells (setting [2])) was under 100 nM each time.
For `CC(C)C[C@@H]1NC(=O)[C@H](Cc2c[nH]cn2)NC(=O)[C@H](Cc2c[nH]c3ccccc23)NC(=O)[C@H](C)NC(=O)[C@@H]2CSSC[C@H](NC(=O)[C@H](Cc3c[nH]c4ccccc34)NC(=O)[C@H](C(C)C)NC(=O)[C@H](CC(C)C)NC(=O)[C@H](CCC(=O)O)NC(=O)CNC1=O)C(=O)N[C@@H]([C@@H](C)O)C(=O)N1CCC[C@@H]1C(=O)N1C[C@@H](NC(=O)CCOCCOCCOCCNC(=O)CCCc3cn(C[C@@]45CO[C@@H](O4)[C@H](Nc4nc(Cl)ns4)[C@@H](O)[C@H]5O)nn3)C[C@H]1C(=O)N[C@@H](CC(=O)O)C(=O)N2` [Compound 5], the EC50 (in assay [1]; with HepG2 cells (setting [2])) was under 100 nM each time.
With `CC(C)C[C@@H]1NC(=O)[C@H](Cc2c[nH]cn2)NC(=O)[C@H](Cc2c[nH]c3ccccc23)NC(=O)[C@H](C)NC(=O)[C@@H](NC(=O)[C@H](CC(=O)O)NC(=O)CCOCCOCCOCCOCCNC(=O)CCCc2cn(CCCCCC(=O)NC(COCCC(=O)NCCOCCOCCOCCO[C@@H]3O[C@H](CO)[C@H](O)[C@H](O)[C@H]3Nc3cncc(C(F)(F)F)n3)COCCC(=O)NCCOCCOCCOCCO[C@@H]3O[C@H](CO)[C@H](O)[C@H](O)[C@H]3Nc3cncc(C(F)(F)F)n3)nn2)CSSC[C@@H](C(=O)N[C@H](C(N)=O)[C@@H](C)O)NC(=O)[C@H](Cc2c[nH]c3ccccc23)NC(=O)[C@H](C(C)C)NC(=O)[C@H](CC(C)C)NC(=O)[C@H](CCC(=O)O)NC(=O)CNC1=O` [Compound 89], the EC50 in assay [1] (HepG2 cells, ternary complex formation, read-out: TCF EC50) is under 100 nM; with HepG2 cells (setting [3]) it was under 100 nM.
On to `CC(C)C[C@@H]1NC(=O)[C@H](Cc2c[nH]cn2)NC(=O)[C@H](Cc2c[nH]c3ccccc23)NC(=O)[C@H](C)NC(=O)[C@@H]2CSSC[C@H](NC(=O)[C@H](Cc3c[nH]c4ccccc34)NC(=O)[C@H](C(C)C)NC(=O)[C@H](CC(C)C)NC(=O)[C@H](CCC(=O)O)NC(=O)CNC1=O)C(=O)N[C@@H]([C@@H](C)O)C(=O)N1CCC[C@@H]1C(=O)N1C[C@@H](NC(=O)COCCOCCOCC(=O)NC(COCCC(=O)NCCOCCOCCOCCOC[C@H]3OC[C@H](Nc4cncc(C(F)(F)F)n4)[C@@H](O)[C@H]3O)COCCC(=O)NCCOCCOCCOCCOC[C@H]3OC[C@H](Nc4cncc(C(F)(F)F)n4)[C@@H](O)[C@H]3O)C[C@H]1C(=O)N[C@@H](CC(=O)O)C(=O)N2` [Compound 40], for which the EC50 (in assay [1]; with HepG2 cells (setting [2])) was under 100 nM each time.
As for `CC(C)C[C@@H]1NC(=O)[C@H](Cc2c[nH]cn2)NC(=O)[C@H](Cc2c[nH]c3ccccc23)NC(=O)[C@H](C)NC(=O)[C@@H]2CSSC[C@H](NC(=O)[C@H](Cc3c[nH]c4ccccc34)NC(=O)[C@H](C(C)C)NC(=O)[C@H](CC(C)C)NC(=O)[C@H](CCC(=O)O)NC(=O)CNC1=O)C(=O)N[C@@H]([C@@H](C)O)C(=O)N1CCC[C@@H]1C(=O)N1C[C@@H](NC(=O)CNC(COCCC(=O)NCCOCCOCCOCCOC[C@H]3OC[C@H](Nc4nccc(C(F)(F)F)n4)[C@@H](O)[C@H]3O)COCCC(=O)NCCOCCOCCOCCOC[C@H]3OC[C@H](Nc4nccc(C(F)(F)F)n4)[C@@H](O)[C@H]3O)C[C@H]1C(=O)N[C@@H](CC(=O)O)C(=O)N2` [Compound 50], the EC50 (in assay [1]; in the assay on HepG2 cells (setting [2])) was under 100 nM each time.

The EC50 is the midpoint of the concentration-response curve.
